Consider 12 compounds from patent publication US9889146B2, “Benzoxaborole compounds and uses thereof” (priority 2012, dated 2018).

Type in all cases: cell-based
Assay [1] relates to Escherichia coli 1161435 parent and mutant strains B4, B26 and B35. The assay is described as follows: Sensitivity to leucine analogs in MH and M9 media.
For assay [2], the system named is P. aeruginosa. The assay is described as follows: In vitro activity against P. aeruginosa clinical isolates. The following applies: P. aeruginosa, 2,008 clinical isolates; GSK2251052 based on potential susceptible breakpoint of ≦4 μg/mL. The protocol: GSK2251052 was tested for activity against P. aeruginosa, and its activity was compared to other antibiotics of known activity. The results are shown below in Tables 2a and 2b. Of 2,008 clinical isolates tested (from 2009-2010 subjects, of which 40% were from North America) greater than 90% were susceptible to GSK2251052 based on a potential susceptible breakpoint of ≦4 μg/mL.

Assay [3] relates to E. coli ATCC 25922 wild type and mutants. Description: MIC, wild type and GSK2251052 resistant mutants. The conditions noted are these: Escherichia coli. As for the experimental part: (§1) Spontaneous Resistance Frequency was determined in vitro for GSK2251052 and the resistance mutants in E. coli ATCC 25922, K. pneumoniae ATCC 13883, and P. aeruginosa ATCC 27853 strains were characterized. GSK2251052 was prepared as described in U.S. Pat. No. 7,816,344 (the entire contents of which are hereby incorporated by reference herein). LB broth, Mueller Hinton II broth (adjusted), and Difco noble agar were obtained from Becton Dickinson (Cockeysville, Md., USA). M9 minimal broth containing 1×M9 salt, 0.5 μg/ML thiamine, 1 mM MgSO4, 0.1 mM CaCl2, 2% glucose, was obtained from Teknova (Hollister, Calif., USA). Antibacterial agents ciprofloxacin, ceftazidime, chloramphenicol, gentamycin, kanamycin, polymixin B, tobramycin and trimethoprim, and amino acids were obtained from Sigma Chemicals (St. Louis, Mo., USA). Strains were obtained from ATCC (Manassas, Va., USA).
(§2) Susceptibility tests were performed following the recommendations for aerobic bacteria (M7-A7) from the Clinical and Laboratories Standards Institute (CLSI).
(§3) Laboratory generated mutants resistant to GSK2251052 contain mutations in the editing domain of LeuRS. Six to ten GSK2251052 resistant colonies of E. coli ATCC 25922, K. pneumoniae ATCC 13883 and P. aeruginosa ATCC 27853 were selected for further analysis and their MICs to GSK2251052 were determined (Table 4-7).

Assay [4] deals with K. pneumoniae ATCC 13883 wild type and mutants. Description: MIC, wild type and GSK2251052 resistant mutants. The conditions noted are these: Klebsiella pneumoniae. The protocol: as §1, §2, §3
The test system of assay [5] is P. aeruginosa ATCC 27853 wild type and mutants. The assay is described as follows: MIC, wild type and GSK2251052 resistant mutants. The conditions noted are these: Pseudomonas aeruginosa. The protocol: as §1, §2, §3

Converted amounts (≈) assume the structure as drawn. Read-outs that look alike come from different tables or passages of the source.

Take `CC(CC(N)C(=O)O)C(F)(F)F` (racemic) [5,5,5-Trifluoro-DL-Leucine]: the MIC (sensitivity to leucine analogs) in assay [1] (1161435 Parent, M9) is 128 µg/mL; in assay [1] (1161435 Parent, MH), > 128 µg/mL; in assay [1] (B4 (P339L), M9), 128 µg/mL; in assay [1] (B4 (P339L), MH), > 128 µg/mL; in assay [1] (B26 (R334H), M9), 64 µg/mL; in assay [1] (B26 (R334H), MH) it was > 128 µg/mL. Further, the MIC (sensitivity to leucine analogs) is 64 µg/mL in assay [1] (B35 (D251N), M9) and > 128 µg/mL in assay [1] (B35 (D251N), MH).

For `CC[C@H](C)[C@H](N)C(=O)O` [L-Isoleucine], the MIC (sensitivity to leucine analogs) in assay [1] (1161435 Parent, M9) was > 128 µg/mL; in assay [1] (1161435 Parent, MH) it was > 128 µg/mL; in assay [1] (B4 (P339L), M9), > 128 µg/mL; in assay [1] (B4 (P339L), MH) it was > 128 µg/mL; in assay [1] (B26 (R334H), M9) it was > 128 µg/mL; in assay [1] (B26 (R334H), MH), > 128 µg/mL. In addition, the MIC (sensitivity to leucine analogs) is > 128 µg/mL in assay [1] (B35 (D251N), M9) and > 128 µg/mL in assay [1] (B35 (D251N), MH).

Turning to `CC(C)[C@H](N)C(=O)O` [L-Valine], the MIC (sensitivity to leucine analogs) in assay [1] (1161435 Parent, M9) was > 128 µg/mL; in assay [1] (1161435 Parent, MH), > 128 µg/mL; in assay [1] (B4 (P339L), M9) it was > 128 µg/mL; in assay [1] (B4 (P339L), MH), > 128 µg/mL; in assay [1] (B26 (R334H), M9), > 128 µg/mL; in assay [1] (B26 (R334H), MH) it was > 128 µg/mL. Further, the MIC (sensitivity to leucine analogs) was > 128 µg/mL in assay [1] (B35 (D251N), M9) and > 128 µg/mL in assay [1] (B35 (D251N), MH).

As to `C[C@@H](O)[C@H](N)C(=O)O` [L-Threonine], the MIC (sensitivity to leucine analogs) is > 128 µg/mL in assay [1] (1161435 Parent, M9); > 128 µg/mL in assay [1] (1161435 Parent, MH); > 128 µg/mL in assay [1] (B4 (P339L), M9); > 128 µg/mL in assay [1] (B4 (P339L), MH); > 128 µg/mL in assay [1] (B26 (R334H), M9); > 128 µg/mL in assay [1] (B26 (R334H), MH). Also, the MIC (sensitivity to leucine analogs) was > 128 µg/mL in assay [1] (B35 (D251N), M9) and > 128 µg/mL in assay [1] (B35 (D251N), MH).

As for `NCC[C@H](O)C(=O)N[C@@H]1C[C@H](N)[C@@H](O[C@H]2O[C@H](CN)[C@@H](O)[C@H](O)[C@H]2O)[C@H](O)[C@H]1O[C@H]1O[C@H](CO)[C@@H](O)[C@H](N)[C@H]1O` [Amikacin], the “% susceptible” value in assay [2] was 90.2%.

With `NC(CC1CCCC1)C(=O)O` (racemic) [3-Cyclopentyl-DL-Alanine], the MIC (sensitivity to leucine analogs) is > 128 µg/mL in assay [1] (1161435 Parent, M9); > 128 µg/mL in assay [1] (1161435 Parent, MH); > 128 µg/mL in assay [1] (B4 (P339L), M9); > 128 µg/mL in assay [1] (B4 (P339L), MH); > 128 µg/mL in assay [1] (B26 (R334H), M9); > 128 µg/mL in assay [1] (B26 (R334H), MH). Also, the MIC (sensitivity to leucine analogs) in assay [1] (B35 (D251N), M9) was > 128 µg/mL; in assay [1] (B35 (D251N), MH), > 128 µg/mL.

With Colistin, the “% susceptible” value in assay [2] stood at 62.3%.

For the compound `CC(=O)CC(N)C(=O)O` (racemic) [DL-oxonorvaline], the MIC (sensitivity to leucine analogs) in assay [1] (1161435 Parent, M9) is 128 µg/mL; in assay [1] (1161435 Parent, MH) it was > 256 µg/mL; in assay [1] (B4 (P339L), M9) it was 64 µg/mL; in assay [1] (B4 (P339L), MH) it was > 256 µg/mL; in assay [1] (B26 (R334H), M9) it was 64 µg/mL; in assay [1] (B26 (R334H), MH), > 256 µg/mL. The MIC (sensitivity to leucine analogs) in assay [1] (B35 (D251N), M9) was 128 µg/mL; in assay [1] (B35 (D251N), MH), > 256 µg/mL.

Turning to `NC[C@H]1O[C@H](O[C@H]2[C@H](O)[C@@H](O[C@H]3O[C@H](CO)[C@@H](O)[C@H](N)[C@H]3O)[C@H](N)C[C@@H]2N)[C@H](O)[C@@H](O)[C@@H]1O` [Kanamycin], the MIC was determined as 4 µg/mL (≈ 8.26 µM) in assay [3] (ATCC25922, E wt, read-out: MICs); 4 µg/mL (≈ 8.26 µM) in assay [3] (ATCC25922, read-out: MICs, mutant E 101); 4 µg/mL (≈ 8.26 µM) in assay [3] (ATCC25922, read-out: MICs, mutant E 102); 8 µg/mL (≈ 16.5 µM) in assay [3] (ATCC25922, read-out: MICs, mutant E 107); 2 µg/mL (≈ 4.13 µM) in assay [4] (ATCC13883, K wt., read-out: MICs); 2 µg/mL (≈ 4.13 µM) in assay [4] (ATCC13883, read-out: MICs, mutant K 104). Moreover, the MIC is 2 µg/mL (≈ 4.13 µM) in assay [4] (ATCC13883, read-out: MICs, mutant K 105); 2 µg/mL (≈ 4.13 µM) in assay [4] (ATCC13883, read-out: MICs, mutant K 107); 2 µg/mL (≈ 4.13 µM) in assay [4] (ATCC13883, read-out: MICs, mutant K 108); 1 µg/mL (≈ 2.06 µM) in assay [4] (ATCC13883, read-out: MICs, mutant K 110); > 64 µg/mL in assay [5] (ATCC27853, P wt., read-out: MICs); > 64 µg/mL in assay [5] (ATCC27853, read-out: MICs, mutant P 101). Further, the MIC in assay [5] (ATCC27853, read-out: MICs, mutant P106) was > 64 µg/mL; in assay [5] (ATCC27853, read-out: MICs, mutant P108) it was > 64 µg/mL.

Regarding `CSCC[C@H](N)C(=O)O` [L-Methionine], the MIC (sensitivity to leucine analogs) in assay [1] (1161435 Parent, M9) is > 128 µg/mL; in assay [1] (1161435 Parent, MH) it was > 128 µg/mL; in assay [1] (B4 (P339L), M9) it was > 128 µg/mL; in assay [1] (B4 (P339L), MH), > 128 µg/mL; in assay [1] (B26 (R334H), M9) it was > 128 µg/mL; in assay [1] (B26 (R334H), MH), > 128 µg/mL. In addition, the MIC (sensitivity to leucine analogs) is > 128 µg/mL in assay [1] (B35 (D251N), M9) and > 128 µg/mL in assay [1] (B35 (D251N), MH).

For the compound `CN(C)CC(N)C(=O)O.Cl.Cl` (racemic) [4-Aza-DL-Leucine dihydrochloride], the MIC (sensitivity to leucine analogs) was 64 µg/mL in assay [1] (1161435 Parent, M9); > 128 µg/mL in assay [1] (1161435 Parent, MH); 64 µg/mL in assay [1] (B4 (P339L), M9); > 128 µg/mL in assay [1] (B4 (P339L), MH); 64 µg/mL in assay [1] (B26 (R334H), M9); > 128 µg/mL in assay [1] (B26 (R334H), MH). Further, the MIC (sensitivity to leucine analogs) in assay [1] (B35 (D251N), M9) was 32 µg/mL; in assay [1] (B35 (D251N), MH), > 128 µg/mL.

With `C=CCC(N)C(=O)O` (racemic) [DL-2-Allylglycine], the MIC (sensitivity to leucine analogs) in assay [1] (1161435 Parent, M9) is 16 µg/mL; in assay [1] (1161435 Parent, MH), > 128 µg/mL; in assay [1] (B4 (P339L), M9) it was 16 µg/mL; in assay [1] (B4 (P339L), MH), > 128 µg/mL; in assay [1] (B26 (R334H), M9) it was 16 µg/mL; in assay [1] (B26 (R334H), MH), > 128 µg/mL. For the same compound, the MIC (sensitivity to leucine analogs) in assay [1] (B35 (D251N), M9) is 32 µg/mL; in assay [1] (B35 (D251N), MH), > 128 µg/mL.
